Assay results from patent US10533010B2, “Substituted indole Mcl-1 inhibitors” (Vanderbilt University, priority 2014, dated 2020).
Like-named read-outs stand apart in the source and are kept apart here.

Molecular target: recombinant Mcl-1 (residues 172-327) (Homo sapiens (Human), UniProt Q07820)
Experiment: Fluorescence polarization anisotropy competition assay (FITC-Bak or FITC-Bim BH3 peptide) with Mcl-1
Format: binding
Conditions: Table 2, FITC-Bak or FITC-Bim peptide competition, Ki converted from IC50, read-out: Ki for Inhibition of Mcl-1

Sequence of recombinant Mcl-1 (residues 172-327) (Q07820 172-327): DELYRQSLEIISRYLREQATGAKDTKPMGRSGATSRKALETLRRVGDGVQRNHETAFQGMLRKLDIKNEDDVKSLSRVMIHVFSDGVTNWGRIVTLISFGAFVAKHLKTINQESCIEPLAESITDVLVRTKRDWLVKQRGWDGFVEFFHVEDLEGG

Compound | Ki (Ki bins given in nM) | Ki (Ki bins given in μM)
Cc1cc(OCCCc2c(C(=O)Nc3cc(C(=O)O)c4cc[nH]c4c3)[nH]c3c(-c4c(C)nn(C)c4C)c(Cl)ccc23)cc(C)c1Cl [I-238, 6-(6-chloro-3-(3-(4-chloro-3,5-dimethylphenoxy)propyl)-7-(1,3,5-trimethyl-1H-pyrazol-4-yl)-1H-indole-2-carboxamido)-1H-indole-4-carboxylic acid] | < 50 nM | –
Cc1cc(OCCCc2c(C(=O)NCc3ccc(C(=O)O)cc3)n(CCN3CCOCC3)c3c(-c4c(C)nn(C)c4C)c(Cl)ccc23)cc(C)c1Cl [I-373, 4-((6-chloro-3-(3-(4-chloro-3,5-dimethylphenoxy)propyl)-1-(2-morpholinoethyl)-7-(1,3,5-trimethyl-1H-pyrazol-4-yl)-1H-indole-2-carboxamido)methyl)benzoic acid] | < 50 nM | –
Cc1cc(OCCCc2c3n(c4c(-c5c(C)nn(C)c5C)c(Cl)ccc24)CCCN(c2scnc2C(=O)O)C3=O)cc(C)c1Cl [I-350, 5-(8-chloro-11-(3-(4-chloro-3,5-dimethylphenoxy)propyl)-1-oxo-7-(1,3,5-trimethyl-1H-pyrazol-4-yl)-4,5-dihydro-1H-[1,4]diazepino[1,2-a]indol-2(3H)-yl)thiazole-4-carboxylic acid] | < 50 nM | –
COC(=O)[C@H](Cc1ccccc1)NC(=O)CNC(=O)c1[nH]c2c(-c3c(C)nn(C)c3C)cccc2c1CCCOc1cc(C)c(Cl)c(C)c1 [I-288, methyl (3-(3-(4-chloro-3,5-dimethylphenoxy)propyl)-7-(1,3,5-trimethyl-1H-pyrazol-4-yl)-1H-indole-2-carbonyl)glycyl-L-phenylalaninate] | – | 1000 to 9990 nM
Cc1cc(OCCCc2c3n(c4c(-c5c(C)nn(C)c5C)cccc24)CCCN(Cc2ccc(C(=O)O)cc2)C3=O)cc(C)c1Cl [I-83, 4-((11-(3-(4-chloro-3,5-dimethylphenoxy)propyl)-1-oxo-7-(1,3,5-trimethyl-1H-pyrazol-4-yl)-4,5-dihydro-1H-[1,4]diazepino[1,2-a]indol-2(3H)-yl)methyl)benzoic acid] | < 50 nM | –
Cc1cc(OCCCc2c3n(c4c(-c5c(C)nn(C)c5C)c(Cl)ccc24)CCCN(c2ccc(C(=O)O)cc2F)C3=O)cc(C)c1Cl [I-95, 4-(8-chloro-11-(3-(4-chloro-3,5-dimethylphenoxy)propyl)-1-oxo-7-(1,3,5-trimethyl-1H-pyrazol-4-yl)-4,5-dihydro-1H-[1,4]diazepino[1,2-a]indol-2(3H)-yl)-3-fluorobenzoic acid] | < 50 nM | –
Cc1cc(OCCCc2c(C(=O)N3CCC(CC(=O)O)CC3)[nH]c3c(-c4c(C)nn(C)c4C)cccc23)cc(C)c1Cl [I-204, 2-(1-(3-(3-(4-chloro-3,5-dimethylphenoxy)propyl)-7-(1,3,5-trimethyl-1H-pyrazol-4-yl)-1H-indole-2-carbonyl)piperidin-4-yl)acetic acid] | 51 to 100 nM | –
Cc1cc(OCCCc2c3n(c4c(-c5c(C)nn(C)c5C)c(Cl)ccc24)CCN(c2cc(C(=O)O)cc4c2ccn4C)C3=O)cc(C)c1Cl [I-163, 4-(7-cholro-10-(3-(4-chloro-3,5-dimethylphenoxy)propyl)-1-oxo-6-(1,3,5-trimethyl-1H-pyrazol-4-yl)-3,4-dihydropyrazino[1,2-a]indol-2(1H)-yl)-1-methyl-1H-indole-6-carboxylic acid] | < 50 nM | –
Cc1cc(OCCCc2c(C(=O)N[C@H]3CCC[C@@H](C(=O)O)C3)[nH]c3c(-c4c(C)nn(C)c4C)c(Cl)ccc23)cc(C)c1Cl [I-331, (1R,3S)-3-(6-chloro-3-(3-(4-chloro-3,5-dimethylphenoxy)propyl)-7-(1,3,5-trimethyl-1H-pyrazol-4-yl)-1H-indole-2-carboxamido)cyclohexane-1-carboxylic acid] | < 50 nM | –
Cc1cc(OCCCc2c3n(c4c(-c5c(C)nn(C)c5C)c(Cl)ccc24)C[C@H](C)N(Cc2ccc(C(=O)O)cc2)C3=O)cc(C)c1Cl [I-139, (S)-4-((7-chloro-10-(3-(4-chloro-3,5-dimethylphenoxy)propyl)-3-methyl-1-oxo-6-(1,3,5-trimethyl-1H-pyrazol-4-yl)-3,4-dihydropyrazino[1,2-a]indol-2(1H)-yl)methyl)benzoic acid] | < 50 nM | –
Cc1cc(OCCCc2c3n(c4c(-c5c(C)nn(C)c5C)c(Cl)ccc24)C[C@@H](C)N(c2ccc(C(=O)O)c4ncccc24)C3=O)cc(C)c1Cl [I-158, (R)-5-(7-chloro-10-(3-(4-chloro-3,5-dimethylphenoxy)propyl)-3-methyl-1-oxo-6-(1,3,5-trimethyl-1H-pyrazol-4-yl)-3,4-dihydropyrazino[1,2-a]indol-2(1H)-yl)quinoline-8-carboxylic acid] | < 50 nM | –
Cc1cc(OCCCc2c(C(=O)N3CCN(c4ccc(C(=O)O)cc4)CC3)n(Cc3ccccn3)c3c(-c4c(C)nn(C)c4C)c(Cl)ccc23)cc(C)c1Cl [I-341, 4-(4-(6-chloro-3-(3-(4-chloro-3,5-dimethylphenoxy)propyl)-1-(pyridin-2-ylmethyl)-7-(1,3,5-trimethyl-1H-pyrazol-4-yl)-1H-indole-2-carbonyl)piperazin-1-yl)benzoic acid] | < 50 nM | –
Cc1cc(OCCCc2c3n(c4c(-c5c(C)nn(C)c5C)c(Cl)ccc24)C[C@H](C)N(Cc2cccc(C(=O)O)c2)C3=O)cc(C)c1Cl [I-136, (S)-3-((7-chloro-10-(3-(4-chloro-3,5-dimethylphenoxy)propyl)-3-methyl-1-oxo-6-(1,3,5-trimethyl-1H-pyrazol-4-yl)-3,4-dihydropyrazino[1,2-a]indol-2(1H)-yl)methyl)benzoic acid] | < 50 nM | –
Cc1cc(OCCCc2c3n(c4c(-c5c(C)nn(C)c5C)c(Cl)ccc24)CCCN(c2cc(C(=O)O)cc(Cl)n2)C3=O)cc(C)c1Cl [I-230, 2-chloro-6-(8-chloro-11-(3-(4-chloro-3,5-dimethylphenoxy)propyl)-1-oxo-7-(1,3,5-trimethyl-1H-pyrazol-4-yl)-4,5-dihydro-1H-[1,4]diazepino[1,2-a]indol-2(3H)-yl)isonicotinic acid] | < 50 nM | –
Cc1cc(OCCCc2c(C(=O)NCc3ccc(N4CCc5ccccc5C4)nc3)[nH]c3c(-c4c(C)nn(C)c4C)cccc23)cc(C)c1Cl [I-261, 3-(3-(4-chloro-3,5-dimethylphenoxy)propyl)-N-((6-(3,4-dihydroisoquinolin-2 (1H)-yl)pyridin-3-yl)methyl)-7-(1,3,5-trimethyl-1H-pyrazol-4-yl)-1H-indole-2-carboxamide] | – | 1000 to 9990 nM
Cc1cc(OCCCc2c3n(c4c(-c5c(C)nn(C)c5C)c(Cl)ccc24)C(C)[C@@H](C)N(Cc2ccc(C(=O)O)cc2)C3=O)cc(C)c1Cl (stereo partly drawn) [I-144, 4-(((3R)-7-chloro-10-(3-(4-chloro-3,5-dimethylphenoxy)propyl)-3,4-dimethyl-1-oxo-6-(1,3,5-trimethyl-1H-pyrazol-4-yl)-3,4-dihydropyrazino[1,2-a]indol-2(1H)-yl)methyl)benzoic acid] | < 50 nM | –
Cc1cc(OCCCc2c(C(=O)NC3CCN(C(=O)CC(=O)O)CC3)[nH]c3c(-c4c(C)nn(C)c4C)cccc23)cc(C)c1Cl [I-318, 3-(4-(3-(3-(4-chloro-3,5-dimethylphenoxy)propyl)-7-(1,3,5-trimethyl-1H-pyrazol-4-yl)-1H-indole-2-carboxamido)piperidin-1-yl)-3-oxopropanoic acid] | < 50 nM | –
